What was measured:
Type in all cases: cell-based, human
[1] = tested on: SVCT-2 high-expression cell lines, Sw480 and Sw620; assay: Cell viability of Sw480 and Sw620 treated with vitamin C and/or phloretin; settings: for cell response (cell viability): Sw620 and Sw480
Experimental: (§1) The cell viability was measured by Neutral red (sigma) assay. Cells (1×10^4/each well) were inoculated on a 96-well plate and were cultured for 24 hours and were treated with vitamin C for 4 hours, and then were washed with PBS (Pan Biotech), and were further cultured in RPMI1640 without vitamin C for 20 hours. They were washed twice and were stained.

[2] = tested on: SVCT-2 high-expression cells; assay: c-Myc localization by immunocytochemistry, SVCT-2 high-expression cell lines; settings: phloretin treated together with vitamin C
Experimental: (§2) Cells treated with vitamin C were immobilized with 4% paraformaldehyde for 10 minutes and were washed with PBS 3 times for 5 minutes, and then permeable buffer (Biolegend, San Diego, Calif., USA) was treated for 10 minutes. Then, cells were washed with PBS 3 times and were cultured with anti-c-Myc (1:500; NB200-108, Novus biologics) antibody at 4° C. overnight. Then, after washing with PBS 4 times, cells were cultured with a secondary anti-mouse-TRITC (1:1000; ab6786; Abcam) conjugated antibody.
In order to confirm the cell proliferation by the hormetic response in cancer cell lines, the cell proliferation confirmation experiment through c-Myc was conducted.
Specifically, after smearing cells on cover glass and culturing them, vitamin C was treated and after washing with PBS, an antigen with […] as antigens was attached to cells, and it was confirmed through fluorescence.

[3] = tested on: SVCT-2 high-expression cell lines, Sw480 and Sw620; assay: Vitamin C absorption in Sw480 and Sw620 with the SVCT family inhibitor phloretin; settings: phloretin 20 μM together with vitamin C 1 mM
Experimental: In order to measure the vitamin C absorption of each colorectal cancer cell line, the absorption of vitamin C in cells was analyzed with High Performance Liquid Chromatography (HPLC), and the result was shown in FIG. 1c.
Then, after treating 1 mM vitamin C, or treating vitamin C 1 mM and phloretin 20 μM together to each cell line of the SVCT-2 high-expression cell lines, Sw480 and Sw620, the vitamin C absorption was measured, and the result was shown in FIG. 9a.
The experimental results measured according to the method for measuring the vitamin C absorption of SVCT-2 expression cell lines of Example 1-3, after treating various concentrations (0 mM or 1 mM) of vitamin C and treating 1 mM vitamin C and 20 μM phloretin, for SVCT-2 high-expression cell lines, Sw480 and Sw620 were shown in FIG. 9a.

[4] = tested on: SVCT-2 high-expression cell lines, Sw620 and Sw480; assay: qRT-PCR gene expression analysis, SVCT-2 high-expression cell lines
Experimental: (§3) According to the method provided by the manufacturer, the total RNA of cells was extracted using TRI reagent (MRC; Molecular Research Center, Cincinnati, Ohio, USA). The RNA concentration was determined using a spectrophotometer reading the absorbance at 260 nm. cDNA was synthesized using mML-V reverse transcriptase (Bioneer Co, Daejeon, Republic of Korea) according to the protocol provided by the manufacturer. Then, using SYBR Premix Ex Taq (TaKaRa, Otsu, Shinga, Japan) and Rotor-Gene Q system (Qiagen, Chadstone, Victoria, Australia), quantitative real-time PCR was carried out. Data were analyzed using Rotor-Gene Q series software version 2.3.1 (Qiagen).
(§4) In order to confirm the apoptosis and hormetic proliferation response by vitamin C, the quantitative real-time polymerase chain reaction (qRT-PCR) gene-expression analysis of p53, Cyclin D1, E2F1 and Ki-67 genes was conducted using the method of Experimental example 3, and the result was shown in FIG. 2c to FIG. 2f.
After treating vitamin C 10 μM and phloretin to SVCT-2 high-expression cell lines, Sw480 and Sw620 at the same time, the relative expression of Ki-67 and E2F1 used as cancer cell proliferation markers was measured using the qRT-PCR of Example 1, and the result was shown in FIG. 5e and FIG. 5f.

[5] = tested on: SVCT-2 high-expression cell lines, Sw480 and Sw620; assay: Western blot of Bax, c-Myc and Cyclin D1, SVCT-2 high-expression cell lines
Experimental: (§5) Protein was extracted from frozen tissue using PRO-PREP protein extraction kit according to the instruction of the manufacturer. The protein concentration was measured using Bradford assay (Bio-RAD, Munich, Germany)
(§6) After denaturalizing protein 30 μg in sample buffer at 95° C. for 6 minutes, samples were loaded on 12% SDS-polyacrylamide gel and were transferred to a nitrocellulose blotting membrane. Subsequently, the membrane was blocked with 5% skim milk in Tris-buffered saline. Then, after washing it with Tris-buffered saline-0.10% Tween 20 three times, the membrane was cultured at 4° C. overnight with anti-cyclin D1 (1:2500; NB600-584; Novus biologics), anti-c-Myc (1:2500; NB200-108; Novus biologics), anti-Bax (1:2000; 2774; Cell Signaling Technology, Beverly, Mass., USA), and anti-beta-actin (1:5000; ab20272; Abcam, Cambridge, Mass., USA) antibodies. Then, after washing it with Tris-buffered saline-0.10% Tween 20 4 times for 20 minutes, the membrane was cultured with a secondary anti-rabbit, anti-rat or anti-goat antibody for 1 hour. After additional washing, immunoreactive bands exposed to ECL substrate (Pierce, Rockford, Ill., USA) and X-ray film (Agfa-Gevaert N.V, Septestraat, Mortsel, Belgium) were detected.
After treating vitamin C 10 μM and phloretin to SVCT-2 high-expression cell lines, Sw480 and Sw620 at the same time, the western blot analysis of Bax, c-Myc and Cyclin D1 in cells was conducted, and the result was shown in FIG. 6c and FIG. 6d.

[6] = tested on: Sw620 and Sw480 cell lines; assay: ROS production by DCF-Da staining (FACS), SVCT-2 high-expression cell lines
Excerpt: In order to confirm ROS production in SVCT-2 high-expression cell lines in the apoptosis response and hormetic response, and more specifically confirm the cause of the result of Example 5, the present inventors investigated ROS production using DCF-Da staining in Sw620 cell line and Sw480 cell line, and the result was shown in FIG. 5c and FIG. 5d.

[7] = tested on: colorectal cancer cell lines (Sw480, Sw620, LoVo, SNU-C4, HCT116, SNU-05, CoLo-205, HCT15, DLD-1); assay: Cell viability (Neutral red) of colorectal cancer cell lines treated with 1 mM vitamin C; settings: nine colorectal cancer cell lines
Experimental: Human colorectal cancer cells were cultured in RPMI1640 medium Gilbco, Cergy Pontoise, France) containing 10% bovine fetal serum (PAN Biotech, Aidenbach, Germany) and 1% Penstrep (PAN Biotech) in a humidified incubator comprising 5% CO2 under the condition of 37° C. Vitamin C was purchased from BCWORLD PHARM (BCWORLD PHARM. CO, Seoul, Korea), and phloretin was purchased from sigma Aldrich (Sigma, St. Louis, Mo., USA).
The human colorectal cancer cell lines used in the experiment were Sw480, Sw620, HCT116, HCT15, SNU-C4, SNU-05, DLD-1, LoVo, and CoLo-205 cell lines commonly used in the related art. All the colorectal cancer cell lines used in the experiment of the present invention were received from Dr. Yu Byung-Chul of National Cancer Center.
as §1
The cell viability of each colorectal cancer cell line was measured using the method of Experimental example 2, and the result was shown in FIG. 1b.

[8] = tested on: SVCT high-expression cell lines (Sw480, Sw620, LoVo, SNU-C4); assay: Cell viability (Neutral red), vitamin C concentration gradient, SVCT-2 high-expression cell lines
Experimental: as §1
(§7) In order to research a role conducted by vitamin C treated at a high concentration or low concentration to cancer cell lines, after treating vitamin C at various concentrations according to a concentration gradient to each cell line, the cell viability analysis was conducted using the method of Experimental example 2.
As same as the SVCT low-expression cell lines, after treating vitamin C to SVCT high-expression cell lines (Sw480, Sw620, LoVo, SNU-C4) according to a concentration gradient (0 μm to 2 mM), the cell viability was measured, and the result was shown in FIG. 2b. It was confirmed that in case of high-expression cell lines, when treating a low concentration of vitamin C, the cell viability was reduced, and as the treated concentration of vitamin C increased, the cell viability was reduced more.

[9] = tested on: HCT15 and DLD-1 cell lines; assay: c-Myc localization by immunocytochemistry, SVCT-2 low-expression cell lines; settings: vitamin C 1 mM or 10 μM
Experimental: as §2
In order to investigate the expression of cancer proliferation markers in SVCT-2 low-expression cell lines and localization where c-Myc is present in cancer cell lines, after treating vitamin C of 1 mM or 10 μM to each SVCT-2 low-expression cell line, HCT15 and DLD-1 cell lines, the immunocytochemistry of Experimental example 5 was conducted, and the result was shown in FIGS. 4a and 4b.

[10] = tested on: SVCT-2 low-expression cell lines (HCT116, CoLo-205, HCT15, DLD-1); assay: Cell viability (Neutral red), vitamin C concentration gradient, SVCT-2 low-expression cell lines
Experimental: as §1, §7
After treating vitamin C to SVCT-2 low-expression cell liens (HCT116, CoLo-205, HCT15, DLD-1) according to a concentration gradient (0 μm to 2 mM), the cell viability was measured, and the result was shown in FIG. 2a.

[11] = tested on: SVCT-2 low-expression cell lines (DLD1 and HCT15); assay: ROS production by DCF-Da staining (FACS), SVCT-2 low-expression cell lines; settings: 15 minutes, DLD-1 and HCT15
Experimental: In order to investigate ROS production, when treating vitamin C of 10 μM or 1 mM to SVCT-2 low-expression cell lines (DLD1 and HCT15), after treating each dose of vitamin C to SVCT-2 low-expression cell lines, they were stained with DCF-Da, and the ROS measurement result was shown in FIG. 3a and FIG. 3b.

[12] = tested on: HCT15 and DLD-1; assay: Western blot of Bax, c-Myc and Cyclin D1, SVCT-2 low-expression cell lines
Experimental: as §5, §6
In order to investigate the apoptosis and proliferation of cancer cells by vitamin C treatment in the protein expression level, a low concentration or high concentration of vitamin C was treated to SVCT-2 low-expression cell lines and the western blot analysis of Bax, c-Myc, and Cyclin D1 was conducted using the method of Experimental example 4, and the result was shown in FIG. 4c and FIG. 4d.

[13] = tested on: SVCT-2 low-expression cell lines, DLD-1 and HCT15; assay: qRT-PCR gene expression analysis, SVCT-2 low-expression cell lines
Experimental: as §3, §4

[14] = vitamin C 10 μM and phloretin at the same time, Sw620 and Sw480
[15] = 10 μM vitamin C and phloretin at the same time
[16] = vitamin C 10 μM or 1 mM, Sw620 and Sw480
[17] = 10 μM or 1 mM vitamin C without phloretin
[18] = low concentration (10 μM) vitamin C, DLD-1 and HCT15

## O=C(CCc1ccc(O)cc1)c1c(O)cc(O)cc1O [phloretin]
[1]; concentration of phloretin used in the experiment (20 μM; 0-40 μM tested), Sw480 and Sw620
  cytotoxicity of phloretin (cell viability assay): no cell self-toxicity
[1]; phloretin together with vitamin C 10 μM
  cell response (cell viability): hormetic proliferation response occurred
[2]
  localization of increased c-Myc (immunocytochemistry): present in cytoplasm not a nucleus
[3]
  intracellular capacity of vitamin C (vitamin C absorption): reduced
[4]; [14]
  expression of E2F1 (qRT-PCR): increased
  expression of Ki-67 (qRT-PCR): increased
[5]; [15]
  expression of C-Myc (western blot): increased
  expression of cyclin D1 (western blot): increased
[5]; phloretin treatment (with 10 μM vitamin C)
  Bax expression (western blot): did not change remarkably
[6]; 20 μM phloretin with 10 μM vitamin C
  ROS production (DCF-Da): not sufficiently produced

## O=C1O[C@H]([C@@H](O)CO)C(O)=C1O [vitamin C, L-ASCORBIC ACID]
[1]; vitamin C 1 mM and 10 μM, without phloretin
  cell response (cell viability): apoptosis response was induced
[7]
  cytotoxicity of vitamin C (cell viability): proportional to SVCT-2 expression
[8]; as the treated concentration of vitamin C increased (up to 2 mM)
  cell viability: reduced more
[8]; low concentration of vitamin C
  cell viability: reduced
[9]
  c-Myc localization (immunocytochemistry): almost localized in cytoplasm
[4]; 10 μM and 1 mM, SVCT-2 high-expression cell lines
  expression of p53 (qRT-PCR): increased
[4]; [16]
  expression of E2F1 (qRT-PCR): reduced
  expression of Ki-67 (qRT-PCR): reduced
  expression of cyclin D1 (qRT-PCR): reduced
[10]; vitamin C 1.0 mM to 2.0 mM or more
  cell viability: dramatically reduced
[10]; vitamin C less than 10 μM
  cell viability: over 100%
[5]; [17]
  expression of C-Myc (western blot): significantly reduced
  expression of cyclin D1 (western blot): significantly reduced
[5]; vitamin C treatment (10 μM or 1 mM)
  Bax expression (western blot): increased
[11]; 10 μM vitamin C
  ROS production (DCF-Da): not produced
[11]; 1 mM vitamin C
  ROS production (DCF-Da): produced
[12]; 10 μM vitamin C
  expression of c-Myc (western blot): increased
  expression of cyclin D1 (western blot): increased
[12]; 1 mM vitamin C
  expression of c-Myc (western blot): reduced
  expression of cyclin D1 (western blot): reduced
[12]; vitamin C 1 mM and 10 μM
  Bax expression (western blot): did not significantly change
[13]; 10 μM and 1 mM tested, SVCT-2 low-expression cell lines
  expression of p53 (qRT-PCR): induced only in case of treatment of 1 mM vitamin C
[13]; [18]
  expression of E2F1 (qRT-PCR): increased
  expression of Ki-67 (qRT-PCR): increased
  expression of cyclin D1 (qRT-PCR): increased
[6]; 1 mM vitamin C or 10 μM vitamin C
  ROS production (DCF-Da): produced

— patent US20200011852A1, “METHODS FOR PREDICTING THE ANTICANCER THERAPEUTIC RESPONSE OF L-ASCORBIC ACID” (priority 2018, published 2020)
